# Laboratory results from ChEMBL document CHEMBL1146551, “Simplified tetrandrine congeners as possible antihypertensive agents with a dual mechanism of action” (J Nat Prod, 2003).
# Key:
# [1] = test system: Aorta; experiment: Vasorelaxant activity against noradrenaline-induced contraction in Wistar rat thoracic aorta in presence of calcium; assay type: functional, tissue-based
# [2] = test system: Aorta; experiment: Vasorelaxant activity against KCl-induced contraction in Wistar rat thoracic aorta in presence of calcium; assay type: functional, tissue-based
# [3] = target: T1, Adrenergic receptor alpha-1 (Rattus norvegicus, UniProt P15823+P23944+P43140); experiment: Displacement of [3H]prazosin from alpha1 adrenergic receptor in Wistar rat cerebral cortex membrane; assay type: tissue-based
# T1 sequence (P15823 whole entry): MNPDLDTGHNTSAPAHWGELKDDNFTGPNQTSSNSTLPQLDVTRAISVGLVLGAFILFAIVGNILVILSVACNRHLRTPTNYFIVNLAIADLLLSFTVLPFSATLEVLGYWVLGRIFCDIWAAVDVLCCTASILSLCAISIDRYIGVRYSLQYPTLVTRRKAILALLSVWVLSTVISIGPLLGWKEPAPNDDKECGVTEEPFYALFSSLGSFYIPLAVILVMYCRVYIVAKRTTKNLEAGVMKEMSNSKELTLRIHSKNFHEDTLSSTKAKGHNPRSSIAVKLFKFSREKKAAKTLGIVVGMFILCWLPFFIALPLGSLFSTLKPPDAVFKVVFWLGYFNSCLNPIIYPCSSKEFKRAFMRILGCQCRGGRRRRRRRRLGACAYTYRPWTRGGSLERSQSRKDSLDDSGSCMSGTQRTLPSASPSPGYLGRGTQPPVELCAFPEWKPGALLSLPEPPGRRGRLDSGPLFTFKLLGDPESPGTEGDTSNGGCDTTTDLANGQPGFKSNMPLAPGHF
# T1 sequence (P23944 whole entry): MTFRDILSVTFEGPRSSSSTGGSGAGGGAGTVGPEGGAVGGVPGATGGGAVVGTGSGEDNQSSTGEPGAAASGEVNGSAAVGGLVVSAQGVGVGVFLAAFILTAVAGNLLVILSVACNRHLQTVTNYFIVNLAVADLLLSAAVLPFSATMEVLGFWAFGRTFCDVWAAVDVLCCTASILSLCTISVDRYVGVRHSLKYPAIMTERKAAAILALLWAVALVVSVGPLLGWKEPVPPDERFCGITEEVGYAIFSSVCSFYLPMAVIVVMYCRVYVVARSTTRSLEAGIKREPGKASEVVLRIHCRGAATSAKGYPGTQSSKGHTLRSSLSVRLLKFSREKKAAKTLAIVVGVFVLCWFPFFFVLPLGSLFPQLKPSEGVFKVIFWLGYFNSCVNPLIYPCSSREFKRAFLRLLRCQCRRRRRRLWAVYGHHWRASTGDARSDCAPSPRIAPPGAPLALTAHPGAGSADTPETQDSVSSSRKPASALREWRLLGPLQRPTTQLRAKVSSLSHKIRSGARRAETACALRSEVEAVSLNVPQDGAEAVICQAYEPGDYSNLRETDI
# T1 sequence (P43140 whole entry): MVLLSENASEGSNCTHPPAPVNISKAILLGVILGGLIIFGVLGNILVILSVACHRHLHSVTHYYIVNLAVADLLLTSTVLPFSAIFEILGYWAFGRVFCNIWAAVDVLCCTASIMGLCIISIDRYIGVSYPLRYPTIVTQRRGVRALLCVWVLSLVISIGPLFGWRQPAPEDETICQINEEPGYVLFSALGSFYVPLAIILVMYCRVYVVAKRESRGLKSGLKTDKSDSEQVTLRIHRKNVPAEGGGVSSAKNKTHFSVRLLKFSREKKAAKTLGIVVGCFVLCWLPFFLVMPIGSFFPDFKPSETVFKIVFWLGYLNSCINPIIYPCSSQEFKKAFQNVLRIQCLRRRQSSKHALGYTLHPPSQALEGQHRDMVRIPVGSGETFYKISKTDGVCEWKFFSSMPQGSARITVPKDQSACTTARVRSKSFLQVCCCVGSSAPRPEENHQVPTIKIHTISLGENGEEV
# [4] = target: Voltage-gated L-type calcium channel (Rattus norvegicus, UniProt P22002+Q02485+P27732); experiment: Displacement of [3H]diltiazem from benzothiazepine binding site of L-type calcium channel in Wistar rat cerebral cortex membrane
# [5] = test system: Aorta; experiment: Vasorelaxant activity against KCl-induced contraction in Wistar rat thoracic aorta at 100 uM in presence of calcium; assay type: functional; design: scale not given: the % may be the effect or the level left
SMILES,IC50 [1] [µM],IC50 [2] [µM],pKi [3],pKi [4],Activity [5] [%],Activity ([4]; rat) [%]
COc1cc2c(cc1OC)C(Cc1ccc(O)cc1)N(C)CC2 (racemic),209,115,5.14,5.02,,
CCN1CCc2cc(OC)c(O)cc2C1Cc1ccc(O)cc1 (racemic),,,5.29,4.86,,
COc1cc2c(cc1OCc1ccccc1)C(Cc1ccc(OCc3ccccc3)cc1)NCC2 (racemic),,,5.02,4.61,,
COc1ccc2cc1Oc1ccc(cc1)C[C@H]1c3cc(c(OC)cc3CCN1C)Oc1c(OC)c(OC)cc3c1[C@H](C2)N(C)CC3 [FANCHININ],29.5,13.5,6.16,6.13,,
COc1ccc(CC2NCCc3cc(OC)c(OCc4ccccc4)cc32)cc1 (racemic),,,5.34,,,
COc1cc2c(cc1O)C(Cc1ccc(O)cc1)NCC2 (racemic) [COCLAURINE],17.4,,5.97,,17.2,30
CCCN1CCc2cc(OC)c(OCc3ccccc3)cc2C1Cc1ccc(OCc2ccccc2)cc1 (racemic),,,5.05,5.75,,
COc1ccc(CC2c3cc(O)c(OC)cc3CCN2C)cc1 (racemic),25.1,72.4,5.29,4.9,,
COc1cc2c(cc1O)C(Cc1ccc(OCc3ccccc3)cc1)NCC2 (racemic),16.2,13.8,5.69,5.57,,
COc1ccc(CC2c3cc(OCc4ccccc4)c(OC)cc3CCN2C)cc1 (racemic),4.27,11.5,5.73,5.82,,

# The next lines start with results.
IC50 [1] [µM],IC50 [2] [µM],pKi [3],pKi [4],SMILES,Activity [5] [%],Activity ([4]; rat) [%]
13.2,7.59,5.49,5.6,COc1cc2c(cc1OCc1ccccc1)C(Cc1ccc(O)cc1)NCC2 (racemic),,
66.1,14.8,5.1,5.38,COc1ccc(CC2c3cc(OC)c(OC)cc3CCN2C)cc1 (racemic),,
,,5.23,,COc1cc2c(cc1OC)C(Cc1ccc(O)cc1)NCC2 (racemic),,
,,5.12,5.74,COc1cc2c(cc1OCc1ccccc1)C(Cc1ccc(OCc3ccccc3)cc1)N(C)CC2 (racemic),,
24.5,67.6,5.63,4.64,COc1cc2c(cc1O)C(Cc1ccc(O)cc1)N(C)CC2 (racemic) [METHYL COCLAURINE],,
,,5.07,4.51,CCN1CCc2cc(OC)c(OC)cc2C1Cc1ccc(O)cc1 (racemic),,
8.71,5.75,5.49,5.7,COc1cc2c(cc1OCc1ccccc1)C(Cc1ccc(O)cc1)N(C)CC2 (racemic),,
,,4.92,4.49,COc1ccc(CC2NCCc3cc(OC)c(O)cc32)cc1 (racemic),,
